In patent US9694016B2 (Novartis AG, priority 2013, dated 2017) one finds IC50 data, which are given here for 33 molecules.

The target in one assay is b-Raf (V600E) (Homo sapiens (Human), UniProt P15056, V600E). Conditions: read-out: b-Raf IC-50.
b-Raf (V600E), sequence (P15056 whole entry V600E): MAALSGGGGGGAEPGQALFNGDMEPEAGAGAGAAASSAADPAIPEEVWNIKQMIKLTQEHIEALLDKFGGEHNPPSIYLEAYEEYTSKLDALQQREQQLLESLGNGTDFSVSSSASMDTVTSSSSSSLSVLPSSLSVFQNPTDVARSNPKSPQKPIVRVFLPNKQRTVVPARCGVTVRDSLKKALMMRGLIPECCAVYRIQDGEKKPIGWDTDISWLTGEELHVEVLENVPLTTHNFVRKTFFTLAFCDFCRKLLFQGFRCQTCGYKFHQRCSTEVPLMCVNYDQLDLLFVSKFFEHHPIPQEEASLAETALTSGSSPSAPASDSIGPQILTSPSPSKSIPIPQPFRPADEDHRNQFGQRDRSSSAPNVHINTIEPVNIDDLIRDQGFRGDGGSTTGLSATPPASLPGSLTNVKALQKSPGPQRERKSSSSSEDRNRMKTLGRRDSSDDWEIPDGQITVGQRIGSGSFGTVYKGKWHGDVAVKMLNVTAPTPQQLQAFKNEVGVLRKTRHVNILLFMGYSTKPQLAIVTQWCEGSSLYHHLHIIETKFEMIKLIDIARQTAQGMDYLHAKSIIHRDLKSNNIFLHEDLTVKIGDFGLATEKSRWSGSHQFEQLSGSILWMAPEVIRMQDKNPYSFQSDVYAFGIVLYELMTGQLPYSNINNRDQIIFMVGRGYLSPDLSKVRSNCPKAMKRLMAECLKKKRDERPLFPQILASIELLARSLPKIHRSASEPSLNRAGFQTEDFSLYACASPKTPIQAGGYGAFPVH
With `Cc1ccc(NC(=O)c2cccc(C(F)(F)F)c2)cc1-c1cc(N2CCOCC2)nc(N2CCOCC2)n1` [Example 10, N-(3-(2,6-dimorpholinopyrimidin-4-yl)-4-methylphenyl)-3-(trifluoromethyl)benzamide], the IC50 was 0.3 nM.

Staying with this assay, now noted: read-out: b-Raf IC-50; AlphaScreen, 60 min pre-incubation, 3 hours reaction.
For `Cc1ccc(NC(=O)c2ccnc(C(C)(F)F)c2)cc1-c1cc(N2CCOC(C)(C)C2)c(=O)n(C)n1` [Example 667, 2-(1,1-difluoroethyl)-N-(3-(5-(2,2-dimethylmorpholino)-1-methyl-6-oxo-1,6-dihydropyridazin-3-yl)-4-methylphenyl)isonicotinamide], the IC50 came to 3.4 nM. Take `Cc1ncc(NC(=O)c2ccccc2)cc1-c1cc(N2CCOCC2)n(C)c(=O)c1` [Example 503, N-(1′,2-dimethyl-6′-morpholino-2′-oxo-1′,2′-dihydro-[3,4′-bipyridin]-5-yl)benzamide]: the IC50 stood at 200 nM. The same measure, in the same setting: the result for `CCOc1ncc(-c2cc(NC(=O)c3cccc(C(F)(F)F)c3)ccc2C)nc1N1CCOCC1` [Example 538, N-(3-(5-ethoxy-6-morpholinopyrazin-2-yl)-4-methylphenyl)-3-(trifluoromethyl)benzamide] reads 1.2 nM; that for `COc1nnc(-c2cc(NC(=O)c3ccnc(C(C)(F)F)c3)cnc2C)cc1N1CCOCC1` [Example 603, 2-(1,1-difluoroethyl)-N-(5-(6-methoxy-5-morpholinopyridazin-3-yl)-6-methylpyridin-3-yl)isonicotinamide], 2.7 nM; that for `CCOc1nnc(-c2cc(NC(=O)c3ccnc(C(C)(C)C#N)c3)ccc2C)cc1N1CCOC[C@H]1C` [Example 624, (R)-2-(2-cyanopropan-2-yl)-N-(3-(6-ethoxy-5-(3-methylmorpholino)pyridazin-3-yl)-4-methylphenyl)isonicotinamide], 4.7 nM.

Regarding `CCNc1nc(-c2cc(NC(=O)c3cccc(C(F)F)c3)ccc2C)cc(N2CCOCC2)n1` [Example 698, 3-(difluoromethyl)-N-(3-(2-(ethylamino)-6-morpholinopyrimidin-4-yl)-4-methylphenyl)benzamide], the IC50 was found to be 0.7 nM. Same read-out and setting: the result for `Cc1ccc(NC(=O)c2ccnc(C(F)F)c2)cc1-c1cc(N2CCOCC2)n(C)c(=O)c1` [Example 486, 2-(difluoromethyl)-N-(4-methyl-3-(1-methyl-6-morpholino-2-oxo-1,2-dihydropyridin-4-yl)phenyl)isonicotinamide] reads 1.1 nM; that for `Cc1ccc(NC(=O)c2ccnc(C(C)(C)C#N)c2)cc1-c1cc(N2CCOCC2)nc(N[C@@H](C)CO)n1` [Example 746], 4.6 nM; that for `Cc1ncc(NC(=O)c2cccc(C(F)(F)F)c2)cc1-c1cc(N2CCOCC2)c(OC2CCOCC2)nn1` [Example 636, N-(6-methyl-5-(5-morpholino-6-((tetrahydro-2H-pyran-4-yl)oxy)pyridazin-3-yl)pyridin-3-yl)-3-(trifluoromethyl)benzamide], 1.3 nM.

As for `Cc1ccc(NC(=O)c2cccc(C(F)(F)F)c2)cc1-c1nc(N2CCOCC2)c2cccnc2n1` [Example 833, N-(4-methyl-3-(4-morpholinopyrido[2,3-d]pyrimidin-2-yl)phenyl)-3-(trifluoromethyl)benzamide], the IC50 came out at 1.7 nM. Consider `Cc1ncc(NC(=O)c2ccnc(C(C)(C)C)c2)cc1-c1cc(N2CCOCC2)n(C)c(=O)c1` [Example 507, 2-(tert-butyl)-N-(1′,2-dimethyl-6′-morpholino-2′-oxo-1′,2′-dihydro-[3,4′-bipyridin]-5-yl)isonicotinamide], for which the IC50 worked out at 20.6 nM.

Regarding `CCNc1nc(-c2cc(NC(=O)c3ccnc(C(C)(C)O)c3)cnc2C)cc(N2CCOCC2)n1` [Example 723, N-(5-(2-(ethylamino)-6-morpholinopyrimidin-4-yl)-6-methylpyridin-3-yl)-2-(2-hydroxypropan-2-yl)isonicotinamide], the IC50 was found to be 34.8 nM. Same read-out and setting: the result for `Cc1ccc(NC(=O)c2ccnc(C(C)(F)F)c2)cc1-c1cc(N2CCOC[C@H]2C)c(=O)n(C)n1` [Example 674, (R)-2-(1,1-difluoroethyl)-N-(4-methyl-3-(1-methyl-5-(3-methylmorpholino)-6-oxo-1,6-dihydropyridazin-3-yl)phenyl)isonicotinamide] reads 3.7 nM; that for `Cc1ccc(NC(=O)c2ccnc(C(C)(C)C#N)c2)cc1-c1cc(N2CCOCC2)c(OCCO)nn1` [Example 591, 2-(2-cyanopropan-2-yl)-N-(3-(6-(2-hydroxyethoxy)-5-morpholinopyridazin-3-yl)-4-methylphenyl)isonicotinamide], 2.1 nM.

Still in this assay, the particulars now being: read-out: b-Raf IC-50; AlphaScreen, 60 min pre-incubation, reaction 3 hours at room temperature.
With `Cc1ccc(NC(=O)c2cccc(C(F)F)c2)cc1-c1nc2c(c(N3CCOCC3)n1)S(=O)(=O)CC2` [Example 854, 3-(difluoromethyl)-N-(4-methyl-3-(4-morpholino-5,5-dioxido-6,7-dihydrothieno[3,2-d]pyrimidin-2-yl)phenyl)benzamide], the IC50 stood at 0.8 nM. Still for that read-out and setting: the result for `Cc1ccc(NC(=O)c2ccnc(C(C)(C)O)c2)cc1-c1cc(OC2CCOCC2)nc(N2CCOCC2)c1` [Example 1150, 2-(2-hydroxypropan-2-yl)-N-(4-methyl-3-(2-morpholino-6-((tetrahydro-2H-pyran-4-yl)oxy)pyridin-4-yl)phenyl)isonicotinamide] reads 1.6 nM; that for `CCOc1cc(-c2cc(NC(=O)c3ccnc(C(F)F)c3)cnc2C)cc(N2CCOCC2)n1` [Example 1146, 2-(difluoromethyl)-N-(2′-ethoxy-2-methyl-6′-morpholino-[3,4′-bipyridin]-5-yl)isonicotinamide], 1.87 nM; that for `Cc1ncc(NC(=O)c2ccnc(C(F)F)c2)cc1-c1cc(NCCO)nc(N2CCOCC2)c1` [Example 1039, 2-(difluoromethyl)-N-(2′-((2-hydroxyethyl)amino)-2-methyl-6′-morpholino-[3,4′-bipyridin]-5-yl)isonicotinamide], 5.04 nM. Still for that read-out and setting: next, `Cc1ncc(NC(=O)c2cccc(C(C)(C)S(C)(=O)=O)c2)cc1-c1cc(N2CCOCC2)nc(N2CC(O)C2)c1` [Example 1091, N-(2′-(3-hydroxyazetidin-1-yl)-2-methyl-6′-morpholino-[3,4′-bipyridin]-5-yl)-3-(2-(methylsulfonyl)propan-2-yl)benzamide]: 1110 nM; `Cc1ccc(NC(=O)c2cc(C(C)(C)C#N)ccn2)cc1-c1cc(N2CCOCC2)c(=O)n(C)c1` [Example 903, 4-(2-cyanopropan-2-yl)-N-(4-methyl-3-(1-methyl-5-morpholino-6-oxo-1,6-dihydropyridin-3-yl)phenyl)picolinamide]: 3.64 nM.

In the case of `CCOc1cc(-c2cc(NC(=O)c3ccnc(C4CC4)c3)cnc2C)cc(N2CCOCC2)n1` [Example 1149, 2-cyclopropyl-N-(2′-ethoxy-2-methyl-6′-morpholino-[3,4′-bipyridin]-5-yl)isonicotinamide], the IC50 stood at 3.13 nM. In the case of `Cc1ncc(NC(=O)c2cccc(C(F)F)c2)cc1-c1cc(N2CCOCC2)nc(N2CC(O)C2)c1` [Example 1079, 3-(difluoromethyl)-N-(2′-(3-hydroxyazetidin-1-yl)-2-methyl-6′-morpholino-[3,4′-bipyridin]-5-yl)benzamide], the IC50 turned out to be 4.64 nM.

The assay is the same for the next values; noted with them: read-out: b-Raf IC-50; Table 2; AlphaScreen, 3 hours reaction.
For the molecule `Cc1ccc(NC(=O)c2cccc(S(C)(=O)=O)c2)cc1-c1ccnc(N2CCOCC2)c1` [Example 68, N-(4-methyl-3-(2-morpholinopyridin-4-yl)phenyl)-3-(methylsulfonyl)benzamide], the IC50 turned out to be 0.6 nM. The same measure, in the same setting: next, `CCOc1ncc(-c2cc(NC(=O)c3cnnc(C(F)(F)F)c3)ccc2C)cc1N1CCOCC1` [Example 280, N-(3-(6-ethoxy-5-morpholinopyridin-3-yl)-4-methylphenyl)-6-(trifluoromethyl)pyridazine-4-carboxamide]: 1.1 nM; `Cc1ncc(NC(=O)c2cccc(C(F)(F)F)c2)cc1-c1cnc(OC2CC3(COC3)C2)c(N2CCOCC2)c1` [Example 322, N-(6′-(2-oxaspiro[3.3]heptan-6-yloxy)-2-methyl-5′-morpholino-[3,3′-bipyridin]-5-yl)-3-(trifluoromethyl)benzamide]: 1.1 nM.

Regarding `Cc1ncc(NC(=O)c2cccc(C(F)(F)F)c2)cc1-c1cnc(CS(C)(=O)=O)c(N2CCOCC2)c1` [Example 327, N-(2-methyl-6′-((methylsulfonyl)methyl)-5′-morpholino-[3,3′-bipyridin]-5-yl)-3-(trifluoromethyl)benzamide], the IC50 stood at 3.9 nM. Turning to `Cc1ncc(NC(=O)c2cccc(C(F)(F)F)c2)cc1-c1cnc(OCC(F)F)c(N2CCOCC2)c1` [Example 227, N-(6′-(2,2-difluoroethoxy)-2-methyl-5′-morpholino-[3,3′-bipyridin]-5-yl)-3-(trifluoromethyl)benzamide], the IC50 came out at 1.8 nM.

In the case of `Cc1ncc(NC(=O)c2ccnc(C3(C#N)CC3)c2)cc1-c1cnc(N(C)C)c(N2CCOCC2)c1` [Example 266, 2-(1-cyanocyclopropyl)-N-(6′-(dimethylamino)-2-methyl-5′-morpholino-[3,3′-bipyridin]-5-yl)isonicotinamide], the IC50 is 1.9 nM. As to `Cc1ncc(NC(=O)c2cccc(C(F)(F)F)c2)cc1-c1cc(N2CCOCC2)c(=O)n(C)c1` [Example 138, N-(1′,2-dimethyl-5′-morpholino-6′-oxo-1′,6′-dihydro-[3,3′-bipyridin]-5-yl)-3-(trifluoromethyl)benzamide], the IC50 is 4.7 nM. In the case of `Cn1cc(-c2cc(NC(=O)c3cccc(C(F)F)c3)ccc2Cl)cc(N2CCOCC2)c1=O` [Example 412, N-(4-chloro-3-(1-methyl-5-morpholino-6-oxo-1,6-dihydropyridin-3-yl)phenyl)-3-(difluoromethyl)benzamide], the IC50 was 0.8 nM. On the same count and under the same terms, the result for `Cn1cc(-c2cc(NC(=O)c3cccc(C(F)(F)F)c3)ccc2Cl)cc(N2CCOCC2)c1=O` [Example 409, N-(4-chloro-3-(1-methyl-5-morpholino-6-oxo-1,6-dihydropyridin-3-yl)phenyl)-3-(trifluoromethyl)benzamide] reads 1.7 nM; that for `Cc1ccc(NC(=O)c2cc(C3CC3)on2)cc1-c1cc(N2CCOCC2)c(=O)n(C)c1` [Example 372, 5-cyclopropyl-N-(4-methyl-3-(1-methyl-5-morpholino-6-oxo-1,6-dihydropyridin-3-yl)phenyl)isoxazole-3-carboxamide], 0.7 nM.
